Earlier results, collected in US20240366580A1, “NOVEL PHARMACEUTICAL COMPOSITIONS COMPRISING DABIGATRAN ETEXILATE OR SALT THEREOF” (Zim Laboratories Limited, priority 2021, published 2024).
Where a name gives a salt, the structure may show the parent alone.

Key:
[1] = oral administration
[2] = high permeability, low solubility

solubility in ethanol (ethanol): slightly soluble | solubility in isopropanol (isopropanol): sparingly soluble | solubility in methanol (methanol): freely soluble | absolute bioavailability [1]: 3-7% | BCS class [2]: Class II
SMILES: CCCCCCOC(=O)NC(=N)c1ccc(NCc2nc3cc(C(=O)N(CCC(=O)OCC)c4ccccn4)ccc3n2C)cc1 [Dabigatran etexilate mesylate, β-Alanine, N-[[2-[[[4-[[[(hexyloxy)carbonyl]amino]iminomethyl]phenyl]amino]methyl]-1-methyl-1H-benzimidazol-5-yl]carbonyl]-N-2-pyridinyl-,ethyl ester, methanesulfonate]
